The values below come from the supplement of paper PMC10307832.

Common to all, as to experiment: relative viability (nuclei count vs DMSO), 5 days (fraction); higher = more cells survive
Compound in the experiment “Carboplatin + Alpelisib”: C1CC(C1)(C(=O)O)C(=O)O.[NH2-].[NH2-].[Pt+2] [Carboplatin] + Cc1nc(NC(=O)N2CCC[C@H]2C(N)=O)sc1-c1ccnc(C(C)(C)C(F)(F)F)c1 [Alpelisib] (partner 2 µM)
The procedure, abridged: (§1)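 Relative viability divides the nuclei count in treated wells by that in vehicle wells. Lung cancer cell lines were seeded in 1536-well plates, dosed by pin tool the next day, and fixed and stained after 5 days in one step with final 0.05% Triton X-100, 1% formaldehyde and 1 ug/ml Hoechst. Dosing was a single drug or a fixed anchor-drug dose plus five library-drug doses (not always all listed) in √10 steps, and values are medians of duplicate plates imaged at 4×.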

Compound in the experiment “Carboplatin + Olaparib”: C1CC(C1)(C(=O)O)C(=O)O.[NH2-].[NH2-].[Pt+2] [Carboplatin] + O=C(c1cc(Cc2n[nH]c(=O)c3ccccc23)ccc1F)N1CCN(C(=O)C2CC2)CC1 [Olaparib] (partner 8 µM)
The procedure, abridged: as §1

Compound in the experiment “GSK126 + Trametinib”: CC[C@H](C)N1C=C(C2=C(C=C(C=C21)C3=CN=C(C=C3)N4CCNCC4)C(=O)NCC5=C(C=C(NC5=O)C)C)C [GSK126] + CC(=O)Nc1cccc(-n2c(=O)n(C3CC3)c(=O)c3c(Nc4ccc(I)cc4F)n(C)c(=O)c(C)c32)c1 [Trametinib] (partner 0.02 µM)
The procedure, abridged:
as §1

Compound in the experiment “GSK126 + Lapatinib”: CC[C@H](C)N1C=C(C2=C(C=C(C=C21)C3=CN=C(C=C3)N4CCNCC4)C(=O)NCC5=C(C=C(NC5=O)C)C)C [GSK126] + CS(=O)(=O)CCNCc1ccc(-c2ccc3ncnc(Nc4ccc(OCc5cccc(F)c5)c(Cl)c4)c3c2)o1 [Lapatinib] (partner 2 µM)
The procedure, abridged:
as §1

Turning to 201T, the relative viability amounted to 1.07 in the experiment with Carboplatin + Alpelisib (first compound 0.08 µM); 1.07 with Carboplatin + Alpelisib (first compound 0.253 µM); 1.04 in the experiment with Carboplatin + Alpelisib (first compound 0.8 µM); 1.01 with Carboplatin + Alpelisib (first compound 2.53 µM); 0.926 with Carboplatin + Alpelisib (first compound 8 µM); 0.869 with Carboplatin + Olaparib (first compound 0.08 µM). For the same cell line, the relative viability amounted to 0.836 with Carboplatin + Olaparib (first compound 0.253 µM); 0.872 in the experiment with Carboplatin + Olaparib (first compound 0.8 µM); 0.822 in the experiment with Carboplatin + Olaparib (first compound 2.53 µM); 0.774 with Carboplatin + Olaparib (first compound 8 µM); 0.698 with GSK126 + Trametinib (first compound 0.08 µM); 0.693 with GSK126 + Trametinib (first compound 0.253 µM). Also, the relative viability with GSK126 + Trametinib (first compound 0.8 µM) turned out to be 0.726; in the experiment with GSK126 + Trametinib (first compound 2.53 µM) it was 0.746; with GSK126 + Trametinib (first compound 8 µM) it was 0.726; with GSK126 + Lapatinib (first compound 0.08 µM) it was 1.04; in the experiment with GSK126 + Lapatinib (first compound 0.253 µM), 1.04; with GSK126 + Lapatinib (first compound 0.8 µM), 1.09. Moreover, the relative viability turned out to be 1.1 in the experiment with GSK126 + Lapatinib (first compound 2.53 µM) and 1.16 in the experiment with GSK126 + Lapatinib (first compound 8 µM).
Regarding A549, the relative viability with Carboplatin + Alpelisib (first compound 0.08 µM) turned out to be 0.811; in the experiment with Carboplatin + Alpelisib (first compound 0.253 µM), 0.901; in the experiment with Carboplatin + Alpelisib (first compound 0.8 µM), 0.854; in the experiment with Carboplatin + Alpelisib (first compound 2.53 µM) it was 0.674; in the experiment with Carboplatin + Alpelisib (first compound 8 µM), 0.234; in the experiment with Carboplatin + Olaparib (first compound 0.08 µM) it was 0.332. Further, the relative viability with Carboplatin + Olaparib (first compound 0.253 µM) was found to be 0.388; with Carboplatin + Olaparib (first compound 0.8 µM) it was 0.314; with Carboplatin + Olaparib (first compound 2.53 µM), 0.329; with Carboplatin + Olaparib (first compound 8 µM) it was 0.174; with GSK126 + Lapatinib (first compound 0.08 µM) it was 1.06; with GSK126 + Lapatinib (first compound 0.253 µM), 1.08. The relative viability with GSK126 + Lapatinib (first compound 0.8 µM) worked out at 0.946; with GSK126 + Lapatinib (first compound 2.53 µM) it was 0.932; with GSK126 + Lapatinib (first compound 8 µM), 0.934.
Turning to A-427, the relative viability with Carboplatin + Alpelisib (first compound 0.08 µM) came to 1.14; in the experiment with Carboplatin + Alpelisib (first compound 0.253 µM), 1.09; with Carboplatin + Alpelisib (first compound 0.8 µM) it was 1.02; in the experiment with Carboplatin + Alpelisib (first compound 2.53 µM), 1.05; in the experiment with Carboplatin + Alpelisib (first compound 8 µM) it was 1.06; in the experiment with Carboplatin + Olaparib (first compound 0.08 µM), 0.733. In addition, the relative viability is 0.695 with Carboplatin + Olaparib (first compound 0.253 µM); 0.88 in the experiment with Carboplatin + Olaparib (first compound 0.8 µM); 0.648 with Carboplatin + Olaparib (first compound 2.53 µM); 0.712 with Carboplatin + Olaparib (first compound 8 µM); 0.845 in the experiment with GSK126 + Trametinib (first compound 0.08 µM); 0.762 with GSK126 + Trametinib (first compound 0.253 µM). The relative viability with GSK126 + Trametinib (first compound 0.8 µM) came to 0.712; with GSK126 + Trametinib (first compound 2.53 µM), 0.757; with GSK126 + Trametinib (first compound 8 µM), 0.795; with GSK126 + Lapatinib (first compound 0.08 µM), 1.14; in the experiment with GSK126 + Lapatinib (first compound 0.253 µM), 1.1; with GSK126 + Lapatinib (first compound 0.8 µM), 1.05. Moreover, the figures for the relative viability with GSK126 + Lapatinib (first compound 2.53 µM) and with GSK126 + Lapatinib (first compound 8 µM) were 1.07 and 0.962, respectively.
On to ABC-1, for which the relative viability came out at 1.04 in the experiment with Carboplatin + Alpelisib (first compound 0.08 µM); 1.16 with Carboplatin + Alpelisib (first compound 0.253 µM); 1.04 in the experiment with Carboplatin + Alpelisib (first compound 0.8 µM); 0.919 with Carboplatin + Alpelisib (first compound 2.53 µM); 0.664 with Carboplatin + Alpelisib (first compound 8 µM); 1.09 in the experiment with Carboplatin + Olaparib (first compound 0.08 µM). Further, the relative viability in the experiment with Carboplatin + Olaparib (first compound 0.253 µM) was 0.759; in the experiment with Carboplatin + Olaparib (first compound 0.8 µM), 0.781; in the experiment with Carboplatin + Olaparib (first compound 2.53 µM) it was 0.654; with Carboplatin + Olaparib (first compound 8 µM), 0.553; in the experiment with GSK126 + Lapatinib (first compound 0.08 µM), 1.26; with GSK126 + Lapatinib (first compound 0.253 µM), 1.29. The relative viability with GSK126 + Lapatinib (first compound 0.8 µM) stood at 1.07; with GSK126 + Lapatinib (first compound 2.53 µM), 1.18; in the experiment with GSK126 + Lapatinib (first compound 8 µM), 0.872.
Take BEN: the relative viability amounted to 1.11 with Carboplatin + Alpelisib (first compound 0.08 µM); 1.04 in the experiment with Carboplatin + Alpelisib (first compound 0.253 µM); 0.891 with Carboplatin + Alpelisib (first compound 0.8 µM); 0.798 with Carboplatin + Alpelisib (first compound 2.53 µM); 0.909 with Carboplatin + Alpelisib (first compound 8 µM); 1.21 in the experiment with Carboplatin + Olaparib (first compound 0.08 µM). Also, the relative viability with Carboplatin + Olaparib (first compound 0.253 µM) stood at 1.12; in the experiment with Carboplatin + Olaparib (first compound 0.8 µM) it was 1.11; with Carboplatin + Olaparib (first compound 2.53 µM) it was 0.837; in the experiment with Carboplatin + Olaparib (first compound 8 µM), 0.596; in the experiment with GSK126 + Trametinib (first compound 0.08 µM) it was 1.05; in the experiment with GSK126 + Trametinib (first compound 0.253 µM), 0.736. Also, the relative viability with GSK126 + Trametinib (first compound 0.8 µM) stood at 1.02; with GSK126 + Trametinib (first compound 2.53 µM), 1.26; in the experiment with GSK126 + Trametinib (first compound 8 µM), 0.953; in the experiment with GSK126 + Lapatinib (first compound 0.08 µM) it was 0.818; with GSK126 + Lapatinib (first compound 0.253 µM) it was 0.826; in the experiment with GSK126 + Lapatinib (first compound 0.8 µM), 0.756. Besides, the figures for the relative viability with GSK126 + Lapatinib (first compound 2.53 µM) and with GSK126 + Lapatinib (first compound 8 µM) were 0.799 and 0.811, respectively.
As to CAL-12T, the relative viability with Carboplatin + Alpelisib (first compound 0.08 µM) was 1.18; in the experiment with Carboplatin + Alpelisib (first compound 0.253 µM), 1.05; with Carboplatin + Alpelisib (first compound 0.8 µM) it was 1.2; with Carboplatin + Alpelisib (first compound 2.53 µM) it was 1.23; in the experiment with Carboplatin + Alpelisib (first compound 8 µM), 1.12; with Carboplatin + Olaparib (first compound 0.08 µM), 0.727. Moreover, the relative viability in the experiment with Carboplatin + Olaparib (first compound 0.253 µM) amounted to 0.783; with Carboplatin + Olaparib (first compound 0.8 µM), 0.673; with Carboplatin + Olaparib (first compound 2.53 µM), 0.741; in the experiment with Carboplatin + Olaparib (first compound 8 µM), 0.648; in the experiment with GSK126 + Trametinib (first compound 0.08 µM), 0.407; in the experiment with GSK126 + Trametinib (first compound 0.253 µM), 0.366. Besides, the relative viability with GSK126 + Trametinib (first compound 0.8 µM) was 0.311; in the experiment with GSK126 + Trametinib (first compound 2.53 µM), 0.382; with GSK126 + Trametinib (first compound 8 µM), 0.348; with GSK126 + Lapatinib (first compound 0.08 µM), 0.63; with GSK126 + Lapatinib (first compound 0.253 µM), 0.674; with GSK126 + Lapatinib (first compound 0.8 µM) it was 0.615. Further, the relative viability with GSK126 + Lapatinib (first compound 2.53 µM) was 0.809; in the experiment with GSK126 + Lapatinib (first compound 8 µM) it was 0.644.
Regarding Calu-6, the relative viability with Carboplatin + Alpelisib (first compound 0.08 µM) is 1; with Carboplatin + Alpelisib (first compound 0.253 µM), 0.913; in the experiment with Carboplatin + Alpelisib (first compound 0.8 µM), 1.04; with Carboplatin + Alpelisib (first compound 2.53 µM), 0.856; with Carboplatin + Alpelisib (first compound 8 µM) it was 0.4; with Carboplatin + Olaparib (first compound 0.08 µM), 0.582. The relative viability with Carboplatin + Olaparib (first compound 0.253 µM) stood at 0.552; with Carboplatin + Olaparib (first compound 0.8 µM), 0.541; with Carboplatin + Olaparib (first compound 2.53 µM) it was 0.475; in the experiment with Carboplatin + Olaparib (first compound 8 µM), 0.298; with GSK126 + Lapatinib (first compound 0.08 µM) it was 1.1; with GSK126 + Lapatinib (first compound 0.253 µM), 1.14. The relative viability with GSK126 + Lapatinib (first compound 0.8 µM) came out at 1.07; with GSK126 + Lapatinib (first compound 2.53 µM), 1.11; with GSK126 + Lapatinib (first compound 8 µM) it was 1.03.
For ChaGo-K-1, the relative viability was 0.43 with Carboplatin + Olaparib (first compound 0.08 µM); 0.409 in the experiment with Carboplatin + Olaparib (first compound 0.253 µM); 0.376 with Carboplatin + Olaparib (first compound 0.8 µM); 0.332 with Carboplatin + Olaparib (first compound 2.53 µM); 0.362 in the experiment with Carboplatin + Olaparib (first compound 8 µM); 0.902 in the experiment with GSK126 + Trametinib (first compound 0.08 µM). Further, the relative viability stood at 0.986 in the experiment with GSK126 + Trametinib (first compound 0.253 µM), 0.888 with GSK126 + Trametinib (first compound 0.8 µM), 0.947 in the experiment with GSK126 + Trametinib (first compound 2.53 µM) and 0.983 with GSK126 + Trametinib (first compound 8 µM).
As to EBC-1, the relative viability stood at 0.85 with Carboplatin + Alpelisib (first compound 0.08 µM); 0.827 in the experiment with Carboplatin + Alpelisib (first compound 0.253 µM); 0.809 with Carboplatin + Alpelisib (first compound 0.8 µM); 0.799 with Carboplatin + Alpelisib (first compound 2.53 µM); 0.77 in the experiment with Carboplatin + Alpelisib (first compound 8 µM); 0.775 with Carboplatin + Olaparib (first compound 0.08 µM). The relative viability in the experiment with Carboplatin + Olaparib (first compound 0.253 µM) was found to be 0.694; in the experiment with Carboplatin + Olaparib (first compound 0.8 µM), 0.725; with Carboplatin + Olaparib (first compound 2.53 µM), 0.624; with Carboplatin + Olaparib (first compound 8 µM), 0.567; with GSK126 + Lapatinib (first compound 0.08 µM) it was 0.232; with GSK126 + Lapatinib (first compound 0.253 µM), 0.188. In addition, the results for the relative viability with GSK126 + Lapatinib (first compound 0.8 µM), with GSK126 + Lapatinib (first compound 2.53 µM) and with GSK126 + Lapatinib (first compound 8 µM) were 0.178, 0.21 and 0.202, respectively.
